# Marks after values point to notes of the source that are not given here.
# B1: RasGAP Fragment N2: HA-tagged human RasGAP amino acid 158-455 sequence, expressed from plasmid HA-N2.dn3 (protein, UniProt P20936 158-455, looked up, fragment)
# chain: SLDGPEYEEEEVAIPLTAPPTNQWYHGKLDRTIAEERLRQAGKSGSYLIRESDRRPGSFVLSFLSQMNVVNHFRIIAMCGDYYIGGRRFSSLSDLIGYYSHVSCLLKGEKLLYPVAPPEPVEDRRRVRAILPYTKVPDTDEISFLKGDMFIVHNELEDGWMWVTNLRTDEQGLIVEDLVEEVGREEDPHEGKIWFHGKISKQEAYNLLMTVGQVCSFLVRPSDNTPGDYSLYFRTNENIQRFKICPTPNNQFMMGGRYYNSIGDIIDHYRKEQIVEGYYLKEPVPMQDQEQVLNDTVD
# modifications: HA tag
# Assays:
# [1] = tested on: U2OS cells; assay: Immuno-cytochemistry of actin and focal adhesions (phospho-FAK); type: cell-based; settings: 13 μM over-night (FIG. 6)
# Procedure: FIG. 6: Actin and focal adhesion changes in TAT-RasGAP317-326-treated cells. 100,000 U2OS cells were cultured on coverslips for 24 hours and then treated with 13 μM TAT-RasGAP317-326, 13 μM TAT or left untreated (control) over-night. The cells were then fixed with 2% PFA, and peinieabilized with PBS Triton-X100 0.2%. The nuclei were stained with Hoechst 33342 and actin with Alexa Fluor 488 phalloidin. Focal adhesions were stained with an anti-phospho Tyr397 FAK. Representative images are shown.
# 100,000 U2OS cells were grown on coverslips overnight, and then treated as described in the figures. The cells were then fixed and the nuclei were stained in PBS containing 2% paraformaldehyde (weight/vol) (Acros Organics, catalog no: 30525-89-4) and 10 μg/ml Hoechst 33342 (Molecular Probe) for 15 minutes. The following steps were performed at room temperature in the absence of light. The cells were washed twice in PBS, permeabilized 10 minutes in PBS, 0.2% Triton X-100, washed twice in PBS, neutralized 15 minutes in DMEM, 10% FBS, and washed twice in PBS. The coverslips were then incubated 20 minutes in PBS 1.65 μM Alexa Fluor 488 phalloidin (Invitrogen, A12379). After a rapid wash in PBS, they were incubated with a polyclonal rabbit anti-phospho-FAK (tyrosine 397) primary antibody (1:50 dilution in DMEM, 10% FBS; Cell Signaling, catalog no: 3283) for 1 hour. After a rapid wash in PBS, the coverslips were incubated 1 hour with a donkey CyTM-anti-rabbit secondary antibody (1:500 dilution in DMEM, 10% FBS; Jackson ImmunoResearch, no. 711-165-152). The slides were finally washed twice in PBS and mounted in Vectashield mounting medium (Vector laboratories Inc.). Images were taken with a Zeiss Axioplan 2 imaging microscope.
# [2] = tested on: U2OS cells; assay: Proliferation assay; type: cell-based; settings: 13 μM (FIG. 3)
# Procedure: 30,000 U2OS cells were seeded in 3.5 cm-plates. The cell number in the plates were then determined 24 and 48 hours later as described in FIG. 1, panel (a). The graph represents the number of cells per mm2 (mean±95% CI of 3 independent experiments). No significant difference between the growth curves could be detected (repeated measures ANOVA). 30,000 U2OS cells were seeded in 3.5 cm plates and cultured overnight. The cells were either treated with 13 μM TAT, 13 μM TAT-RasGAP317-326 or left untreated. Pictures were taken after 0 h, 24 h and 72 hours and cells were counted. The number of cells was then adjusted per mm2.
# [3] = tested on: 4T1-luc2 cells; assay: In vivo metastases model (orthotopic mammary fatpad 4T1-luc2 tumor); parameters: species or system nude mice
# Procedure: 100,000 4T1-luc2 cells were injected orthotopically into the mammary fatpad of nude mice. Four groups of eight nude mice were then treated with or without 0.16 mg TAT-RasGAP317-326 per kg of mouse on the first, third and fifth day of the week during 28 days. The tumor volumes were measured with a caliper at the indicated time points and were calculated according to the formula described in the “MATERIAL AND METHODS” section. A repeated measure ANOVA was performed and no differences were found between the two groups.
# Nude mice were injected into the mammary fatpads with 100,000 murine mammary cancer 4T1-luc2 cells that constitutively express the firefly luciferase. For the injection, the mouse skin was incised in the pelvic area to reach the fatpads, and the wounds were closed after injection with surgery hooks. The cells were injected in 100 μl Matrigel (BD Biosciences, 20% in PBS). Tumor volumes were quantified as follow: The tumor width and length were measured with a caliper and the tumor volume was calculated according to the formula tumor volume [mm3]=(12*L)*π/6, where 1 is the smallest measure between the width and the length (in mm), and L the longest (in mm) In order to quantify metastases, the mice were injected i.p. with 200 μl D-Luciferin Firefly (15 mg/ml in PBS) in PBS, Biosynth, No. L-8220) and luminescence was measured 10 minutes afterwards with an IVIS Lumina 2 apparatus (Xenogen). Metastases were assessed at the indicated time points in vivo and at the last day (28 days after tumor injection) ex vivo for the following organs: lung, liver and axillary and brachial lymph nodes. For the ex vivo measurements, the mice were injected with luciferin as described above, and sacrificed 10 minutes later to excise organs. The light emitted by the organs was measured in a Luciferin bath (150 μg/ml D-Luciferin Firefly in 2 ml PBS per organ). Luminescence is presented as the number of photons emitted per second (p/s).
# 28 days after cancer cells injection, the same mice than those in FIG. 5 were subjected to ex vivo metastases luminescence measurements. The lung, liver, axillary and brachial lymph node (LN) metastases were quantified by luminescence after luciferine i.p. injection. Organs emitting light were considered as bearing metastases. The asterisk denotes a significant difference against the control treatment (0 mg/kg TAT-RasGAP317-326) (p=0.0238 after an Fisher's Exact Test).
# [4] = tested on: U2OS cells; assay: Adhesion assay (trypsinization assay) with peptides; type: cell-based; settings: for cell adherence (resistance to trypsin): U2OS cells, 8 hours (FIG. 4A)
# Procedure: (a) U2OS cells were cultured until confluency and treated during 0 h, 1 h, 3 h, 8 h and 14 h with 13 μM TAT, 13 μM TAT-RasGAP317-326 or without treatment. The cells were then trypsinized during 5 minutes (or not trypsinized), washed with PBS and stained with GIEMSA. Four pictures were taken per plate using a Zeiss Axioplan 2 microscope equipped with a 10× objective and the number of cells per surface area was determined. Representative images are shown. The graph represents the number of cells per mm^2 (mean±95% CI of 3 independent experiments). Scale bar=100 μm. (b) Trypsinization assay on cancerous cell lines (U2OS, HeLa, 4T1, HCT116, SAOS) and non-cancerous cell lines (HEK293T and HaCaT). Cells were treated and analyzed as in panel (a). Values for control and TAT treatments are shown literally as they were too low to be seen on the graphs. (c) Reversibility of the TAT-RasGAP317-326 induced adhesion. Confluent U2OS cells were treated during 24 h with 13 μM TAT, 13 μM TAT-RasGAP317-326 or not treated. The cells were then washed and incubated in culture medium without peptides for the indicated periods of time. Cells were analyzed as in panel (a).
# (§1) (a) RasGAP317-326 without cell-permeation sequences is not able to render cells resistant to trypsin. 300,000 U2OS cells were cultured overnight in 3.5 cm plates and then treated during 8 hours with the indicated peptides (the concentration of each peptide was 13 μM). The cells were then subjected to a trypsinization assay. (b) 2×10^6 HEK293T cells were cultured overnight in 10 cm plates and transfected with empty vector (pcDNA3) or vectors encoding HA-tagged versions of fragment N2 or the 317-326 sequence of RasGAP. One day later, the cells were subjected to a trypsinization test. Results in (a) and (b) correspond to the number of cells per mm2 (mean±95% CI of 3 independent experiments). Some values are shown literally as they were too low to be seen on the graphs.
# 5×10^5 cells were grown overnight and then incubated with peptides or transfected (see the figures for the specific conditions used). The treated cells were washed with phosphate buffered saline (PBS) and then incubated with trypsin-EDTA solution (Sigma; catalog no: T3924; […]) during 5 minutes. The plates were gently hand-rocked 2 and 4 minute after trypsin addition. Detached cells were removed with a PBS wash and the remaining attached cells were dried, incubated in ethanol during 10 minutes, dried again, and finally stained with GIEMSA (Invitrogen) for 45 minutes. Four and six phase contrast pictures were taken (Zeiss Axioplan, 10× objective) for 3.5 cm-plates and 10 cm-plates, respectively. The number of cells per mm2 was then determined.
# [5] = tested on: U2OS, HeLa, HCT116 and HaCaT; assay: Wound-healing experiment; type: cell-based; settings: 13 μM peptide, HCT116, HaCaT (FIG. 2)
# Procedure: Cells were cultured until confluency and a wound in the cell layer was done with a yellow tip. The cells were then left untreated or incubated 24 hours with 13 μM of TAT or TAT-RasGAP317-326 peptides. Pictures were taken just after wounding (0 hour) and at the indicated times. Results correspond to the width of the wound (mean±95% CI of 4 independent experiments). Asterisks denote significant differences between the control and the other conditions at a given time point (t-test after Bonferroni correction). Bar=100 μm. Cells were grown until confluency and a wound in the cell layer was done with a yellow tip. The cells were washed once with PBS to remove debris and then left untreated or incubated 24 hours and 48 hours with 13 μM of TAT or TAT-RasGAP317-326 peptides (in DMEM+10% FBS). Pictures were taken just after wounding (0 h) and at the indicated times. The wound widths were measured as described earlier (Bulat et al., 2009).
# [6] = target: T1, trypsin (Sus scrofa, UniProt P00761); assay: Trypsin pre-incubated with peptide, cell detachment; settings: trypsin pre-incubated one hour with peptide; data not shown
# T1 construct: purchased Sigma T3924
# T1 sequence (P00761 9-231): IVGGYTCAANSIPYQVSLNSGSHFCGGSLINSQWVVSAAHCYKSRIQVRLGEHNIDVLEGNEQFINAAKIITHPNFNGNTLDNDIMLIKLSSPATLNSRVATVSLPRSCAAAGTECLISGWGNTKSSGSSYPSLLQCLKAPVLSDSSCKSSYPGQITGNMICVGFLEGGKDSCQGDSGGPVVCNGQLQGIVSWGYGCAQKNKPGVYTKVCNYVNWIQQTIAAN
# Description: TAT-RasGAP317-326 could increase adherence and block migration by acting in the cellular environment or at the surface of cells. Alternatively, these effects could be induced only once the peptide has entered cells. The following evidence favors the second possibility.
# [7] = peptide by itself; Michod et al., 2004; 2009; cited from earlier work
# [8] = tested on: HEK293T cells; assay: Adhesion assay (trypsinization test) after transfection; type: cell-based; settings: HEK293T cells transfected with HA-tagged constructs, one day (FIG. 4B)
# Procedure: as §1
# 2×10^6 HEK293T cells were cultured overnight in 10 cm-culture plates and transfected with 18 μg of the plasmid of interest and 2 μg of pEGFP-C1 (a green fluorescent protein-encoding plasmid from Clontech) using the calcium-phosphate method (Jordan et al., 1996). Briefly, plasmids were diluted in 450 μl water and mixed with 50 μl CaCl2 2.5M during 30 minutes. […]
# 5×10^5 cells were grown overnight and then incubated with peptides or transfected (see the figures for the specific conditions used). […] The number of cells per mm2 was then determined.
# [9] = 0.160 mg/kg, 28 days after cell injection, ex vivo luminescence
molecule,measurement,setting,value
"GRKKRRQRRR [TAT, cell-permeable carrier peptide used as control, reference compound]",actin and focal adhesion localization,[1],did not exhibit any difference compared to untreated cells
"GRKKRRQRRRGGWMWVTNLRTD [TAT-RasGAP317-326, RasGAP-derived peptide conjugated to HIV-TAT48-57 through two glycine residues]",cell population growth,[2],does not modulate cell population growth
same,actin and focal adhesion localization,[1],major changes in actin and focal adhesion localization
same,cortical actin stress fibers,[1],strong increase
same,location of focal adhesions,[1],mainly found at the cell's periphery
same,ventral stress fibers,[1],almost completely disappeared
same,primary tumor growth,"[3]; 0.16 mg per kg on first, third and fifth day of the week during 28 days, nude mice (FIG. 5)",does not affect primary tumor growth
same,mice with metastases in the indicated organs vs total number of mice: Liver,[3]; [9],3/8
same,mice with metastases in the indicated organs vs total number of mice: Lung,[3]; [9],2/8*
same,mice with metastases in the indicated organs vs total number of mice: LN,"[3]; 0.160 mg/kg, 28 days after cell injection, ex vivo luminescence, axillary and brachial lymph nodes",3/8
same,formation of metastases in other organs,"[3]; 28 days, liver, lymph nodes",apparently no effect
same,lung metastases,"[3]; 28 days, p=0.024, Fisher's Exact Test",significant decrease in lung metastases
same,ability to increase cell adherence when transcription or translation is blocked,"[4]; 1 μg/ml actinomycin D or 30 μg/ml cycloheximide, data not shown",None of the drugs affected the ability
same,cell adhesion,"[4]; 13 μM peptide, trypsinization 5 minutes, U2OS and other cell lines (FIG. 1)",induces cell adhesion
same,ability of the cells to fill wounds (cell migration),[5],blocked the ability of the cells to fill wounds
same,trypsin inhibitory effect (ability of trypsin to detach cells),[6],did not decrease the ability of trypsin to detach cells
same,cell survival,[7],"does not, by itself, affect cell survival"
"RRRRRRRRRGGWMWVTNLRTD [R9—RasGAP317-326, RasGAP317-326 conjugated to a 9 arginine peptide]",cell adherence (resistance to trypsin),[4]; 13 μM peptide,functions as a cell adherence promoting agent
WMWVTNLRTD (listed as Homo sapiens) [RasGAP317-326],cell adherence (resistance to trypsin),[4]; 13 μM peptide,unable to increase cell adherence
B1,cell adherence after transfection,[8],Increases Cell Adherence
